Molecular target: Tyrosinase (EC 1.14.18.1) from mushroom
Test: Tyrosinase inhibitory assay (L-DOPA substrate, absorbance at 475 nm)
Conditions: read-out: IC50 (tyrosinase inhibitory activity); mushroom tyrosinase 15 U/mL, L-DOPA 1.5 mM, phosphate buffer pH 6.8, preincubated 30 min, n = 3
Description: Optical values were measured on a Shimadzu UV-1800 spectrophotometer (Shimadzu Pte., Ltd., Singapore). […] Tyrosinase (EC 1.14.18.1) from mushroom (3933 U·mL^−1) and L-dihydroxyphenylalanine (L-DOPA) were obtained from Sigma-Aldrich (Sigma-Aldrich Pte., Ltd., Singapore). Other chemicals were of the highest grade available.
All pure compounds were dissolved in DMSO and tested at concentrations ranging from 0.01 to 100 μM. Assay mixtures in 0.1 M phosphate buffer pH 6.8 were prepared immediately before use, consisting of 100 μL of tyrosinase solution (15 U/mL) and 1900 μL of test solution. These mixtures were preincubated at room temperature for 30 min, followed by addition of 1000 μL of L-DOPA 1.5 mM in pH 6.8 phosphate buffer and incubated at room temperature for 7 min. The absorbances (A) at 475 nm were acquired on Shimadzu UV-1800 spectrophotometer. The inhibitory percentage (I%) was calculated according to the formula: I% = ((Acontrol − Asample)/Acontrol) × 100%. Data were represented as means ± standard error (n = 3). The IC50 values were determined by using GraphPad Prism software with multivariate nonlinear regression and R^2 > 0.9.

Compound | IC50 [µM]
COC1=CC(=O)C=C(OC)C1=O [Compound 3, 2,6-dimethoxybenzoquinone] | > 100
O=C(O)/C=C/c1ccc(O)cc1 [Compound 4, p-coumaric acid] | 2.35
CC(=O)/C=C/c1ccc(O)c(O)c1 [Compound 6, trans-4-(3,4-dihydroxyphenyl)but-3-en-2-one] | 27
COc1cc(/C=C/C(=O)O)ccc1O [Compound 7, ferulic acid] | > 100

Now from value to compound:

IC50 [µM] | Compound
0.11 | O=C(/C=C/C=C/C=C/c1ccc(O)cc1O)c1ccc(O)cc1O [Compound 2, 2E,4E,6E-1,7-bis(2,4-dihydroxyphenyl)hepta-2,4,6-trien-1-one]
0.033 | O=C(/C=C/C=C/c1ccc(O)cc1O)c1ccc(O)cc1O [Compound 1, 2E,4E-1,5-bis(2,4-dihydroxyphenyl)penta-2,4-dien-1-one]
0.016 | O=C(/C=C/c1ccc(O)cc1O)c1ccc(O)cc1O [Compound 8, 2,4,2′,4′-Tetrahydroxychalcone]

Molecular target: tyrosinase
Test: not given
Conditions: read-out: tyrosinase inhibitory constant (Ki); ref Choi et al. [25]; cited from earlier work

Compound | Ki [µM]
O=c1[nH]cnc2nc[nH]c12 [Hypoxanthine] | > 1000
